Test results: ChEMBL document CHEMBL1201862, “PubChem BioAssay data set” (2004)
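Briefly, cells in 96-well plates were exposed to five compound concentrations for 48 h, and endpoints were estimated by linear interpolation. Here, GI50 denotes the concentration required for 50% inhibition of growth.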 Calls of active or inactive are those of the source. No stated cut-off is given here; in the data, active = GI50 up to about 1.1 µM and inactive = higher.

Assays:
Assay in all cases: inhibition of tumour cell growth, NCI panel, 48 h
A549 = tested on: A549
HOP-62 = tested on: HOP-62
PC-3 = tested on: PC-3
UACC-257 = tested on: UACC-257
RPMI-8226 = tested on: RPMI-8226
Hs-578T = tested on: Hs-578T
SK-MEL-28 = tested on: SK-MEL-28
CCRF-CEM = tested on: CCRF-CEM
UO-31 = tested on: UO-31
786-0 = tested on: 786-0
HT-29 = tested on: HT-29
RXF 393 = tested on: RXF 393
DU-145 = tested on: DU-145
SF-539 = tested on: SF-539
MDA-MB-435 = tested on: MDA-MB-435
SF-268 = tested on: SF-268
K562 = tested on: K562
OVCAR-3 = tested on: OVCAR-3
OVCAR-4 = tested on: OVCAR-4
MDA-MB-231 = tested on: MDA-MB-231

| Compound | GI50 (A549) | GI50 (HOP-62) | GI50 (PC-3) | GI50 (UACC-257) | GI50 (RPMI-8226) | GI50 (Hs-578T) | GI50 (SK-MEL-28) | GI50 (CCRF-CEM) | GI50 (UO-31) | GI50 (786-0) | GI50 (HT-29) | GI50 (RXF 393) | GI50 (DU-145) | GI50 (SF-539) | GI50 (MDA-MB-435) | GI50 (SF-268) | GI50 (K562) | GI50 (OVCAR-3) | GI50 (OVCAR-4) | GI50 (MDA-MB-231) |
| --- | --- | --- | --- | --- | --- | --- | --- | --- | --- | --- | --- | --- | --- | --- | --- | --- | --- | --- | --- | --- |
| Cc1c2c3cc(O)ccc3nc-2n(C)c2ccccc12 | 0.938 µM (active) | 1.5 µM (inactive) | 1.75 µM (inactive) | 2.69 µM (inactive) | 2.34 µM (inactive) | 2.9 µM (inactive) | 2.06 µM (inactive) | 0.743 µM (active) | 0.857 µM (active) | 0.53 µM (active) | 1.1 µM (active) | 1.09 µM (active) | 3.08 µM (inactive) | 1.7 µM (inactive) | 1.36 µM (inactive) | 1.62 µM (inactive) | 0.818 µM (active) | 2.37 µM (inactive) |  |  |
| CN(C)CCNC(=O)c1cccc2c1Oc1c(cccc1[N+](=O)[O-])O2 | 0.458 µM (active) | 0.472 µM (active) | 1.95 µM (inactive) | 2 µM (inactive) | 0.583 µM (active) | 1.94 µM (inactive) | 2.02 µM (inactive) | 0.371 µM (active) | 0.885 µM (active) | 0.564 µM (active) | 1.41 µM (inactive) | 2.08 µM (inactive) | 0.57 µM (active) | 1.39 µM (inactive) | 3.44 µM (inactive) | 2.97 µM (inactive) | 1.45 µM (inactive) | 2.69 µM (inactive) | 5.04 µM (inactive) |  |
| Cc1c(CCCl)c(Cl)n2c(nc3ccccc32)c1C#N | 1.4 µM (inactive) | 2 µM (inactive) | 1.02 µM (active) | 1.44 µM (inactive) | 0.092 µM (active) |  | 1.94 µM (inactive) | 0.045 µM (active) | 1.28 µM (inactive) | 0.463 µM (active) | 1.42 µM (inactive) | 0.787 µM (active) | 1.69 µM (inactive) | 0.681 µM (active) | 0.796 µM (active) | 1.49 µM (inactive) | 0.321 µM (active) | 1.35 µM (inactive) | 1.44 µM (inactive) | 1.32 µM (inactive) |
| COc1cc(/C=C/C(=O)c2ccc(NS(=O)(=O)c3cc([N+](=O)[O-])ccc3C)cc2)cc(OC)c1OC | 3.81 µM (inactive) | 2.99 µM (inactive) | 5.9 µM (inactive) | 7.53 µM (inactive) | 1.96 µM (inactive) |  | 8.43 µM (inactive) | 2.2 µM (inactive) | 5.82 µM (inactive) | 2.74 µM (inactive) | 4.38 µM (inactive) | 2.81 µM (inactive) | 3.13 µM (inactive) | 2.18 µM (inactive) | 3.71 µM (inactive) |  | 2.88 µM (inactive) | 3.15 µM (inactive) | 3.19 µM (inactive) | 2.59 µM (inactive) |
| CC(=O)CCC(=O)CC(O)(C(F)(F)F)C(F)(F)F | 20.6 µM (inactive) | 17.9 µM (inactive) |  | 17.8 µM (inactive) | 17.2 µM (inactive) | 14.6 µM (inactive) | 22.7 µM (inactive) | 21.6 µM (inactive) | 14.5 µM (inactive) | 16.2 µM (inactive) | 17.8 µM (inactive) | 18.6 µM (inactive) | 20.5 µM (inactive) | 16.6 µM (inactive) | 19.4 µM (inactive) | 22.3 µM (inactive) | 15.3 µM (inactive) |  | 19.7 µM (inactive) | 19.2 µM (inactive) |
| O=c1[nH]nc(-c2ccccc2)n1-n1cnnc1 | > 100 µM (inactive) | > 100 µM (inactive) | > 100 µM (inactive) | > 100 µM (inactive) | > 100 µM (inactive) | > 100 µM (inactive) |  | > 100 µM (inactive) | > 100 µM (inactive) | > 100 µM (inactive) | > 100 µM (inactive) | > 100 µM (inactive) |  | > 100 µM (inactive) | > 100 µM (inactive) | > 100 µM (inactive) | > 100 µM (inactive) | > 100 µM (inactive) | > 100 µM (inactive) | > 100 µM (inactive) |
| COC(=O)/C=C\n1c(C)cc(=O)[nH]c1=O | > 100 µM (inactive) | > 100 µM (inactive) | > 100 µM (inactive) | > 100 µM (inactive) | > 100 µM (inactive) | > 100 µM (inactive) | > 100 µM (inactive) | > 100 µM (inactive) | > 100 µM (inactive) | > 100 µM (inactive) | > 100 µM (inactive) | > 100 µM (inactive) |  | > 100 µM (inactive) | > 100 µM (inactive) | > 100 µM (inactive) | > 100 µM (inactive) | > 100 µM (inactive) | > 100 µM (inactive) |  |
| O=C1N/C(=N/N=C/C(O)C(O)C(O)CO)N/C1=C\c1c[nH]c2ccccc12 (stereo unspecified) | > 100 µM (inactive) | > 100 µM (inactive) |  | > 100 µM (inactive) | > 100 µM (inactive) | > 100 µM (inactive) | > 100 µM (inactive) | 41.7 µM (inactive) |  | > 100 µM (inactive) | > 100 µM (inactive) | > 100 µM (inactive) | > 100 µM (inactive) | > 100 µM (inactive) | > 100 µM (inactive) | > 100 µM (inactive) | > 100 µM (inactive) | > 100 µM (inactive) | > 100 µM (inactive) | > 100 µM (inactive) |
| Nc1nc(Nc2ccccc2)c2[nH]cnc2n1 | > 100 µM (inactive) | > 100 µM (inactive) | > 100 µM (inactive) | > 100 µM (inactive) | 53.7 µM (inactive) |  | > 100 µM (inactive) | 50.7 µM (inactive) | 34.8 µM (inactive) | > 100 µM (inactive) | 63.7 µM (inactive) | > 100 µM (inactive) | 77.3 µM (inactive) | > 100 µM (inactive) | > 100 µM (inactive) |  | 62.5 µM (inactive) | 89.9 µM (inactive) | > 100 µM (inactive) | > 100 µM (inactive) |
| COc1cccc(-c2cc(O)c3cc(OC)ccc3n2)c1 | 0.367 µM (active) | 0.446 µM (active) | 0.338 µM (active) | 0.865 µM (active) | 0.34 µM (active) | 0.24 µM (active) |  | 0.195 µM (active) | 0.426 µM (active) | 0.376 µM (active) | 0.33 µM (active) | 0.199 µM (active) | 0.429 µM (active) | 0.188 µM (active) |  | 0.71 µM (active) | 0.128 µM (active) | 0.188 µM (active) | 1.71 µM (inactive) | 0.368 µM (active) |
| CCOC(=O)CCC(C(=O)OCC)n1nnc2cc(Nc3c(C)[n+]([O-])c4cc(F)c(OCC)cc4[n+]3[O-])ccc21 (stereo unspecified) | > 100 µM (inactive) | 22.2 µM (inactive) | > 100 µM (inactive) | > 100 µM (inactive) | > 100 µM (inactive) | 30.3 µM (inactive) |  | > 100 µM (inactive) | > 100 µM (inactive) | 34.5 µM (inactive) | > 100 µM (inactive) | 14 µM (inactive) | > 100 µM (inactive) | 42.6 µM (inactive) | > 100 µM (inactive) | 25.5 µM (inactive) | > 100 µM (inactive) | > 100 µM (inactive) | > 100 µM (inactive) |  |
| CSCCCNC(=O)c1csc(-c2csc(CCNC(=O)CNC(=O)OC(C)(C)C)n2)n1 | > 100 µM (inactive) | > 100 µM (inactive) | > 100 µM (inactive) | > 100 µM (inactive) |  | > 100 µM (inactive) | > 100 µM (inactive) | 43.1 µM (inactive) | > 100 µM (inactive) | > 100 µM (inactive) | > 100 µM (inactive) | > 100 µM (inactive) | > 100 µM (inactive) | > 100 µM (inactive) | > 100 µM (inactive) | > 100 µM (inactive) | > 100 µM (inactive) | > 100 µM (inactive) | > 100 µM (inactive) | > 100 µM (inactive) |
| COC(=O)/C=C/c1cc(O)c2c(c1)[C@H](C(=O)OC)[C@@H](c1ccc(O)c(O)c1)O2 | 0.877 µM (active) | 0.333 µM (active) | 1.57 µM (inactive) | 17.4 µM (inactive) | 0.0618 µM (active) | 0.046 µM (active) | 0.132 µM (active) | 0.0381 µM (active) | 0.189 µM (active) | 0.152 µM (active) | 3.16 µM (inactive) |  | 0.273 µM (active) | 0.0311 µM (active) | < 0.01 µM (active) | 0.635 µM (active) | 0.0306 µM (active) | 0.0339 µM (active) | 2.76 µM (inactive) |  |
| Cc1ccc(-c2cc(-c3ccco3)c(C#N)c(O)n2)cc1 | > 100 µM (inactive) | 50.2 µM (inactive) |  | > 100 µM (inactive) | > 100 µM (inactive) |  | > 100 µM (inactive) | > 100 µM (inactive) | > 100 µM (inactive) | > 100 µM (inactive) | > 100 µM (inactive) | 95.1 µM (inactive) |  | > 100 µM (inactive) |  | > 100 µM (inactive) | > 100 µM (inactive) | > 100 µM (inactive) | 45.1 µM (inactive) |  |
| C/C(=C\COP(=O)(O)OP(=O)(O)O)CCCCCCOCc1ccccc1 | > 100 µM (inactive) | > 100 µM (inactive) |  | > 100 µM (inactive) | > 100 µM (inactive) | > 100 µM (inactive) | > 100 µM (inactive) | > 100 µM (inactive) | > 100 µM (inactive) | > 100 µM (inactive) | > 100 µM (inactive) | > 100 µM (inactive) | > 100 µM (inactive) | > 100 µM (inactive) | > 100 µM (inactive) | > 100 µM (inactive) | > 100 µM (inactive) | > 100 µM (inactive) | > 100 µM (inactive) | > 100 µM (inactive) |
